How the values were obtained:
[1] = compound: O=C(c1cc(Cc2n[nH]c(=O)c3ccccc23)ccc1F)N1CCN(C(=O)C2CC2)CC1 [Olaparib]; assay: relative viability (nuclei count vs DMSO), 5 days (fraction); higher = more cells survive
Outline: (§1)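 Lung cancer cell lines received five library-drug doses (not always all listed) spaced by √10, pinned on vehicle-anchored 1536-well plates after an overnight stay at 37 °C. Five days later, with no medium change, nuclei were Hoechst-stained, imaged at 4× and counted with MetaXpress. Viability is treated-well nuclei relative to vehicle-well nuclei, as a median across plates. Passing plates had control CV below 25% and at least one doubling.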

[2] = compound: C[C@@H](Oc1cc(-c2cnn(C3CCNCC3)c2)cnc1N)c1c(Cl)ccc(F)c1Cl [Crizotinib]; assay: as above
Outline: as §1

Cell Line	relative viability ([1]; 0.08 µM)	relative viability ([1]; 0.253 µM)	relative viability ([1]; 2.53 µM)	relative viability ([1]; 8 µM)	relative viability ([1]; 8 µM, anchor plate)	relative viability ([2]; 0.01 µM)	relative viability ([2]; 0.03162 µM)	relative viability ([2]; 0.1 µM)	relative viability ([2]; 0.3162 µM)	relative viability ([2]; 1 µM)	relative viability ([2]; 1 µM, anchor plate)
LOU-NH91	1.16	0.943	1.01	0.962	0.914	0.945	0.905	1.09	0.949	0.985	0.729
NCI-H1755	1.08	0.89	1.05	0.939	0.881	0.943	0.987	–	0.944	1	0.863
NCI-H647	1.08	0.862	0.97	0.879	0.542	–	1.01	1.01	0.783	–	1.07
A549	1.13	0.875	0.898	0.681	0.361	0.963	1.03	0.948	1.04	0.987	0.755
LCLC-103H	1.04	0.893	1	0.862	0.749	0.906	1.02	1.07	0.991	1	1.01
NCI-H1437	1.02	0.873	0.927	0.814	0.617	0.951	1.03	0.996	0.884	1.08	–
NCI-H2170	0.973	0.875	0.971	0.915	0.599	–	0.985	0.977	0.928	1.01	1.2
HCC-15	1.09	0.904	0.999	0.878	0.731	0.917	1.04	1.01	–	0.974	0.813
NCI-H1648	0.956	0.908	–	1.2	0.818	0.742	1.33	0.651	0.958	1.1	–
NCI-H661	1.02	0.924	0.925	0.836	0.753	0.933	0.95	0.945	1.06	1	0.993
NCI-H650	1.13	0.872	0.801	0.744	0.378	1.07	0.97	1.13	0.697	1.03	0.705
RERF-LC-KJ	1.06	0.943	0.947	0.971	0.89	0.944	1.06	1.02	0.927	1.05	0.819
SK-LU-1	1.13	0.906	0.926	0.735	0.44	1.06	1.07	1.02	1.05	1.08	0.852
NCI-H1792	0.923	0.725	0.773	0.605	0.419	0.886	1.01	1.09	–	0.909	0.997
NCI-H1666	0.985	0.916	0.821	0.838	0.738	0.952	1.02	0.985	0.971	0.987	1.04
SK-MES-1	1.09	0.892	0.96	0.776	0.731	0.951	0.999	1.02	0.97	0.967	0.991
NCI-H1915	1.02	0.892	0.779	0.559	0.269	–	0.99	1.02	–	1.02	0.908
SW 1573	1.1	0.896	0.825	0.633	0.512	0.941	0.999	0.917	0.885	0.974	0.793
NCI-H2087	1.31	0.929	0.944	0.662	0.601	0.871	0.982	1.22	0.788	1.03	0.811
BEN	0.948	0.775	1.01	1.03	1.06	0.867	0.974	0.886	0.807	1.02	0.86
NCI-H1650	1.21	0.848	0.785	0.871	0.812	0.842	0.993	0.969	0.891	0.931	1.02
A-427	1.09	0.945	0.884	0.782	0.713	0.965	1.03	1.03	–	1.01	0.906

Cell Line	relative viability ([1]; 0.08 µM)	relative viability ([1]; 0.253 µM)	relative viability ([1]; 2.53 µM)	relative viability ([1]; 8 µM)	relative viability ([1]; 8 µM, anchor plate)	relative viability ([2]; 0.01 µM)	relative viability ([2]; 0.03162 µM)	relative viability ([2]; 0.1 µM)	relative viability ([2]; 0.3162 µM)	relative viability ([2]; 1 µM)	relative viability ([2]; 1 µM, anchor plate)
CAL-12T	1.21	0.966	0.976	0.888	0.706	0.917	0.973	0.974	0.837	0.981	0.683
EPLC-272H	1.17	0.889	0.968	0.878	0.832	0.883	0.932	0.937	0.778	0.955	0.912
NCI-H23	1.23	0.84	0.804	0.517	0.344	0.808	1.1	1.04	–	0.904	0.546
NCI-H1563	1.16	0.902	1.01	0.912	–	0.887	0.995	0.908	1	1.06	0.843
H3255	1.01	0.869	1.05	0.924	0.579	0.963	0.993	0.991	0.911	1.03	0.934
NCI-H1355	1.02	0.962	0.981	0.91	0.754	0.983	1.01	1.05	0.797	0.981	1.05
UMC-11	1.03	0.894	0.758	0.492	0.373	0.898	0.972	0.91	0.636	1.01	0.606
NCI-H1395	1.01	0.806	0.663	0.538	0.479	0.819	0.943	1.05	0.811	0.739	–
EMC-BAC-2	1.1	0.91	1.05	0.849	0.477	1.08	0.96	0.98	–	0.923	0.767
HCC-44	1.04	0.949	1.02	1.08	0.963	0.967	0.974	1.06	0.879	0.944	0.785
PC-3 [JPC-3]	1.06	0.907	1.12	0.989	1.1	0.978	1.04	1.15	0.992	0.961	0.97
NCI-H1734	1.06	0.935	0.862	0.726	0.635	0.913	–	0.886	–	0.955	0.672
HOP-62	1.08	0.984	0.997	0.722	0.384	0.96	1.01	1.03	0.874	1.04	1
HARA	1.14	0.852	0.804	0.811	0.788	0.796	–	1.03	0.779	1.02	1.04
NCI-H2023	0.98	0.944	0.901	0.685	0.478	0.85	0.982	0.974	0.761	0.734	0.676
NCI-H1993	0.909	0.956	0.978	1.01	1.12	0.859	0.978	0.807	0.798	0.753	0.872
Calu-6	1.13	0.936	0.937	0.789	0.584	0.986	1.03	–	0.957	1.01	0.768
NCI-H460	1.08	0.915	0.895	0.657	0.441	0.961	0.999	0.996	0.991	1.03	0.905
NCI-H2342	0.974	0.951	0.936	0.941	0.452	0.891	0.999	–	0.867	0.882	–
NCI-H596	0.987	0.86	0.919	0.792	0.711	1.02	1.04	1.09	0.98	0.967	0.989
NCI-H522	1.08	1.01	0.973	0.703	0.679	0.919	0.954	0.888	–	0.893	–
NCI-H441	1.13	1	0.942	0.76	0.525	0.99	0.941	0.947	–	1.02	0.726

Cell Line	relative viability ([1]; 0.08 µM)	relative viability ([1]; 0.253 µM)	relative viability ([1]; 2.53 µM)	relative viability ([1]; 8 µM)	relative viability ([1]; 8 µM, anchor plate)	relative viability ([2]; 0.01 µM)	relative viability ([2]; 0.03162 µM)	relative viability ([2]; 0.1 µM)	relative viability ([2]; 0.3162 µM)	relative viability ([2]; 1 µM)	relative viability ([2]; 1 µM, anchor plate)
COR-L 105	0.896	0.87	0.763	0.785	0.697	0.844	0.938	0.901	0.847	0.932	0.826
NCI-H322M	1.06	0.888	0.98	0.815	0.745	0.778	–	1	0.922	0.955	0.93
HCC-827	0.999	0.989	0.962	0.966	0.61	0.985	1.03	1.03	0.901	1.03	–
NCI-H1623	1.07	0.987	0.917	0.791	–	0.891	1.01	0.915	0.89	0.891	–
SW 900	0.879	0.855	0.715	0.716	0.905	0.811	0.97	0.93	0.787	0.952	–
NCI-H1651	0.934	0.902	0.755	0.494	0.188	0.954	0.994	0.938	0.991	1.08	0.884
EKVX	1.03	0.885	0.969	1.03	0.884	0.969	0.941	0.933	0.847	0.982	0.967
201T	1.01	0.888	0.922	1.01	0.835	0.95	1	0.95	1.03	1	1.01
NCI-H2228	1.12	0.845	0.777	0.609	0.719	1.16	1.04	1	0.679	0.585	0.482
NCI-H2009	1.07	0.959	0.94	0.9	0.679	0.953	1	1.05	0.986	1	1.04
NCI-H1299	1.08	0.981	1.01	0.995	0.968	0.976	1.02	1.02	–	0.976	0.932
NCI-H1975	0.985	0.919	0.912	0.901	0.789	0.884	0.992	0.967	0.921	1.02	0.979
NCI-H2347	1.09	0.877	0.877	0.765	0.583	0.965	0.974	1.07	0.973	1.06	0.73
PC-14	1.14	0.849	0.954	0.682	0.285	0.92	1.01	1.02	0.963	0.986	–
COR-L23	1.04	1.04	0.908	0.579	0.353	1.01	1.04	0.963	0.978	0.885	0.623
LK-2	1.19	0.896	1.09	1.01	0.803	0.972	0.87	0.943	1.03	–	–
NCI-H358	0.969	0.894	0.934	0.849	0.63	0.89	0.963	0.902	0.868	0.949	0.574
ABC-1	1.15	0.882	0.863	0.932	0.847	0.845	0.885	0.995	0.878	0.982	1.18
NCI-H520	1.02	0.856	0.85	0.609	0.347	0.895	0.897	0.894	0.836	0.915	0.764
ChaGo-K-1	1.05	0.925	0.906	0.788	0.422	0.977	–	0.953	0.769	0.976	1.11
NCI-H838	1.02	0.903	0.955	0.945	0.767	0.86	–	0.972	0.888	0.928	0.852

From the supplement of paper PMC10307832
